This passage reports IC50 and EC50 results from patent publication US20230391772A1, “METHODS AND COMPOSITIONS FOR TARGETED PROTEIN DEGRADATION” (Ranok Therapeutics (Hangzhou) Co. Ltd., priority 2020, published 2023).

Where only a bound is given, the exact number is not on record here.

The target of one assay is KRAS(G12C) (Homo sapiens, UniProt P01116, G12C). In words: KRAS(G12C)/SOS1 homogeneous time-resolved fluorescence (HTRF) assay. Also on record: purchased Cisbio 63ADK000CB16PEG. The note with it: absence of GTP, 4° C. for 3 hr, read-out: KRAS (G12C) binding. The method, boiled down: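 Three-hour incubation at 4 °C of 3-fold compound dilutions (lowest 1.02 nM) with KRAS(G12C), SOS1 and detection reagents, GTP absent. Disruption of the KRAS(G12C)/SOS1 complex detected by time-resolved fluorescence.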
KRAS(G12C), sequence (P01116 1-188 isoform P01116-2 G12C): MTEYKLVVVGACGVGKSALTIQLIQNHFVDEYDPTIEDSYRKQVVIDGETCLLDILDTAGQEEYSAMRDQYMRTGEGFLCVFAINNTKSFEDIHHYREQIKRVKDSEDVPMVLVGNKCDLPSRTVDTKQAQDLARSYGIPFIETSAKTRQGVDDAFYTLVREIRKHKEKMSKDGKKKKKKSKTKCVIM

For the next assay, the target named is T1, HSP90a protein (Homo sapiens, UniProt P07900).
T1 construct: purchased BPS Bioscience 50298
In words: HSP90α-binding fluorescent polarization (FP) assay, BODIPY-labeled RNK04010 probe. Particulars: FP competition with RNK04010 (BODIPY-labeled), 5 nM, 300 min at 25° C. In a few lines:
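Compounds (20 μM down to 5.2 nM, 2.5-fold steps) compete with a 5 nM fluorescent tracer for N-terminal HSP90a, measured by fluorescence polarization. With FITC-geldanamycin, plates sit 120 min at 25 °C. With BODIPY-RNK04010, they sit 300 min at 25 °C.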

For assay [1], the system named is MIA PaCa-2 human pancreatic carcinoma. In words: MIA PaCa-2 CCK-8 proliferation assay. The class given is cell-based. The note with it: Homo sapiens, MIA PaCa-2, 72 h, MIA PaCa-2 cells. The method, boiled down: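 MIA PaCa-2 (2 copies KRAS(G12C)), NCI-H358 and NCI-H23 (1 copy KRAS(G12C) each) were exposed to compound in 3-fold serial dilutions from 20 μM to 1.02 nM. Viability was read as CCK-8 absorbance, and % inhibition was computed against DMSO-treated cells, with cell-free DMSO medium as blank.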

Turning to `C=CC(=O)N1CCN(c2nc(OC[C@@H]3C[C@H](NC(=O)C4CCN(C(=O)C5CCN(Cc6ccc(-n7c(O)nnc7-c7cc(C)c(O)cc7O)cc6)CC5)CC4)CN3C)nc3c2CCN(c2cccc4cccc(Cl)c24)C3)C[C@@H]1CC#N` [Compound 312, N-[(3S,5S)-5-({[7-(8-chloronaphthalen-1-yl)-4-[(3S)-3-(cyanomethyl)-4-(prop-2-e-noyl)piperazin-1-yl]-5H,6H,8H-pyrido[3,4-d]pyrimidin-2-yl]oxy}methyl)-1-meth-ylpyrrolidin-3-yl]-1-[1-({4-[3-(2,4-dihydroxy-5-methylphenyl)-5-hydroxy-1,2,4-triazol-4-yl]phenyl}methyl)piperidine-4-carbonyl]piperidine-4-carboxamide], the IC50 at KRAS(G12C) and on HSP90a protein was under 100 nM throughout. Besides, in assay [1], the EC50 was over 1000 nM.
As to `C=CC(=O)N1CCN(c2nc(OC[C@@H]3CC[C@H](CN4CCN(C(=O)C5CCN(Cc6ccc(-n7c(O)nnc7-c7cc(C(C)C)c(O)cc7O)cc6)CC5)CC4)N3C)nc3c2CCN(c2cccc4cccc(Cl)c24)C3)C[C@@H]1CC#N` [Compound 313, 2-[(2S)-4-[7-(8-chloronaphthalen-1-yl)-2-{[(2S,5R)-5-({4-[1-({4-[3-(2,4-dihydroxy-5-isopropylphenyl)-5-hydroxy-1,2,4-triazol-4-yl]phenyl}methyl)piperidine-4-carbonyl]piperazin-1-yl}methyl)-1-methylpyrrolidin-2-yl]methoxy}-5H,6H,8H-pyrido [3,4-d]pyrimidin-4-yl]-1-(prop-2-enoyl)piperazin-2-yl]acetonitrile], the IC50 at KRAS(G12C) and on HSP90a protein was under 100 nM throughout. This molecule also gave an EC50 in assay [1] of under 100 nM.
For the molecule `C=CC(=O)N1CCN(c2nc(OC[C@@H]3C[C@H](N4CCC(C(=O)N5CCN(Cc6ccc(-n7c(C(=O)NCC(F)(F)F)nnc7-c7cc(C(C)C)c(O)cc7O)cc6)CC5)CC4)CN3C)nc3c2CCN(c2cccc4cccc(Cl)c24)C3)C[C@@H]1CC#N` [Compound 314, 4-{4-[(4-{1-[(3S,5S)-5-({[7-(8-chloronaphthalen-1-yl)-4-[(3S)-3-(cyanomethyl)-4-(prop-2-enoyl)piperazin-1-yl]-5H,6H,8H-pyrido[3,4-d]pyrimidin-2-yl]oxy}methyl)-1-methylpyrrolidin-3-yl]piperidine-4-carbonyl}piperazin-1-yl)methyl]phenyl}-5-(2,4-dihydroxy-5-isopropylphenyl)-N-(2,2,2-trifluoroethyl)-1,2,4-triazole-3-carboxamide], the IC50 on KRAS(G12C) and on HSP90a protein was under 100 nM throughout. The EC50 in assay [1] was under 100 nM.
`C=CC(=O)N1CCN(c2nc(OC[C@@H]3C[C@H](NC(=O)C4CCN(C(=O)c5ccc(-n6c(O)nnc6-c6cc(C(C)C)c(O)cc6O)cc5)CC4)CN3C)nc3c2CCN(c2cccc4cccc(Cl)c24)C3)C[C@@H]1CC#N` [Compound 315, N-[(3S,5S)-5-({[7-(8-chloronaphthalen-1-yl)-4-[(3S)-3-(cyanomethyl)-4-(prop-2-enoyl)piperazin-1-yl]-5H,6H,8H-pyrido[3,4-d]pyrimidin-2-yl]oxy}methyl)-1-methylpyrrolidin-3-yl]-1-{4-[3-(2,4-dihydroxy-5-isopropylphenyl)-5-hydroxy-1,2,4-triazol-4-yl]benzoyl}piperidine-4-carboxamide]: the IC50 at KRAS(G12C) and at HSP90a protein was under 100 nM throughout. In assay [1], the EC50 was over 1000 nM.
Regarding `C=CC(=O)N1CCN(c2nc(OC[C@@H]3C[C@H](N4CCC(C(=O)N5CCN(Cc6ccc(-n7c(O)nnc7-c7cc(C(C)C)c(O)cc7O)cc6)CC5)CC4)CN3C)nc3c2CCN(c2cccc4cccc(Cl)c24)C3)C[C@@H]1CC#N` [Compound 317, 2-[(2S)-4-[7-(8-chloronaphthalen-1-yl)-2-{[(2S,4S)-4-{4-[4-({4-[3-(2,4-dihydroxy-5-isopropylphenyl)-5-hydroxy-1,2,4-triazol-4-yl]phenyl}methyl)piperazine-1-carbonyl]piperidin-1-yl}-1-methylpyrrolidin-2yl]methoxy}-5H,6H,8H-pyrido[3,4-d]pyrimidin-4-yl]-1-(prop-2-enoyl)piperazin-2-yl]acetonitrile], the IC50 at KRAS(G12C) and at HSP90a protein was under 100 nM each time. This molecule displayed an EC50 in assay [1] of 100 to 1000 nM.
In the case of `C=CC(=O)N1CCN(c2nc(OC[C@@H]3C[C@H](N4CCC5(CCN(C(=O)C6CCN(Cc7ccc(-n8c(O)nnc8-c8cc(C(C)C)c(O)cc8O)cc7)CC6)CC5)CC4)CN3C)nc3c2CCN(c2cccc4cccc(Cl)c24)C3)C[C@@H]1CC#N` [Compound 318, 2-[(2S)-4-[7-(8-chloronaphthalen-1-yl)-2-{[(2S,4S)-4-{9-[1-({4-[3-(2,4-dihydroxy-5-isopropylphenyl)-5-hydroxy-1,2,4-triazol-4-yl]phenyl}methyl)piperidine-4-carbonyl]-3,9-diazaspiro[5.5]undecan-3-yl}-1-methylpyrrolidin-2-yl]methoxy}-5H,6H,8H-pyrido[3,4-d]pyrimidin-4-yl]-1-(prop-2-enoyl)piperazin-2-yl]acetonitrile], the IC50 on KRAS(G12C) and on HSP90a protein was under 100 nM in each case. Besides, the EC50 in assay [1] was in the range of 100 to 1000 nM.
Turning to `C=CC(=O)N1CCN(c2nc(OC[C@@H]3C[C@H](N4CCC(C(=O)N5CCN(CCNC(=O)c6nnc(-c7cc(C(C)C)c(O)cc7O)n6-c6ccccc6)CC5)CC4)CN3C)nc3c2CCN(c2cccc4cccc(Cl)c24)C3)C[C@@H]1CC#N` [Compound 320, N-[2-(4-{1-[(3S,5S)-5-({[7-(8-chloronaphthalen-1-yl)-4-[(3S)-3-(cyanomethyl)-4-(prop-2-enoyl)piperazin-1-yl]-5H,6H,8H-pyrido[3,4-d]pyrimidin-2-yl]oxy}methyl)-1-methylpyrrolidin-3-yl]piperidine-4-carbonyl}piperazin-1-yl)ethyl]-5-(2,4-dihy-droxy-5-isopropylphenyl)-4-phenyl-1,2,4-triazole-3-carboxamide], the IC50 at KRAS(G12C) and on HSP90a protein was under 100 nM in each case. This molecule also yielded an EC50 in assay [1] of 100 to 1000 nM.
On to `C=CC(=O)N1CCN(c2nc(OC[C@@H]3C[C@H](N4CCC(C(=O)N5CCN(Cc6ccc(-n7c(O)nnc7-c7cc(C)c(O)cc7O)cc6)CC5)CC4)CN3C)nc3c2CCN(c2cccc4cccc(Cl)c24)C3)C[C@@H]1CC#N` [Compound 321, 2-[(2S)-4-[7-(8-chloronaphthalen-1-yl)-2-{[(2S,4S)-4-{4-[4-({4-[3-(2,4-dihydroxy-5-methylphenyl)-5-hydroxy-1,2,4-triazol-4-yl]phenyl}methyl)piperazine-1-carbonyl]piperidin-1-yl}-1-methylpyrrolidin-2-yl]methoxy}-5H,6H,8H-pyrido[3,4d]-pyrimidin-4-yl]-1-(prop-2-enoyl)piperazin-2-yl]acetonitrile], for which the IC50 on KRAS(G12C) and at HSP90a protein was under 100 nM in each case. In addition, the EC50 in assay [1] lay in the range of 100 to 1000 nM.
For `C=CC(=O)N1CCN(c2nc(OC[C@@H]3C[C@H](N4CCC(C(=O)N5CCN(Cc6ccc(-n7c(C(=O)NCC(F)(F)C(F)(F)F)nnc7-c7cc(C(C)C)c(O)cc7O)cc6)CC5)CC4)CN3C)nc3c2CCN(c2cccc4cccc(Cl)c24)C3)C[C@@H]1CC#N` [Compound 323], the IC50 on KRAS(G12C) and on HSP90a protein was under 100 nM throughout. This molecule gave an EC50 in assay [1] of under 100 nM.
In the case of `C=CC(=O)N1CCN(c2nc(OC[C@@H]3CC[C@H](C(=O)N4CCN(Cc5ccc(-n6c(O)nnc6-c6cc(C(C)C)c(O)cc6O)cc5)CC4)N3C)nc3c2CCN(c2cccc4cccc(Cl)c24)C3)C[C@@H]1CC#N` [Compound 324, 2-[(2S)-4-[7-(8-chloronaphthalen-1-yl)-2-{[(2S,5R)-5-[4-({4-[3-(2,4-dihydroxy-5-isopropylphenyl)-5-hydroxy-1,2,4-triazol-4-yl]phenyl}methyl)piperazine-1-carbonyl]-1-methylpyrrolidin-2-yl]methoxy}-5H,6H,8H-pyrido[3,4-d]pyrimidin-4-yl]-1-(prop-2-enoyl)piperazin-2-yl]acetonitrile], the IC50 on KRAS(G12C) was 100 to 1000 nM; at HSP90a protein it was under 100 nM. The EC50 in assay [1] lay within 100 to 1000 nM.
Take `C=CC(=O)N1CCN(c2nc(OC[C@@H]3CC[C@H](C(=O)N4CCN(Cc5ccc(-n6c(O)nnc6-c6cc(C)c(O)cc6O)cc5)CC4)N3C)nc3c2CCN(c2cccc4cccc(Cl)c24)C3)C[C@@H]1CC#N` [Compound 325, 2-[(2S)-4-[7-(8-chloronaphthalen-1-yl)-2-{[(2S,5R)-5-[4-({4-[3-(2,4-dihydroxy-5-methylphenyl)-5-hydroxy-1,2,4-triazol-4-yl]phenyl}methyl)piperazine-1-carbonyl]-1-methylpyrrolidin-2-yl]methoxy}-5H,6H,8H-pyrido[3,4-d]pyrimidin-4-yl]-1-(prop-2-enoyl)piperazin-2-yl]acetonitrile]: the IC50 at KRAS(G12C) and at HSP90a protein was under 100 nM each time. This molecule also displayed an EC50 in assay [1] of over 1000 nM.
